Assay results as given in PubChem BioAssay AID1259407 (Chemical Carcinogenesis Research Information System (CCRIS), 2018).
Calls of active or inactive are those of the source. No rule for the calls is given here.

Tested on: CCRIS mutagenicity, Ames/micronucleus/aberration tests
Assay: CCRIS mutagenicity studies
[1] = Test System: AMES SALMONELLA TYPHIMURIUM, Strain/Indicator: TA98, Metabolic Activation: NONE, Method: STANDARD PLATE
[2] = Test System: AMES SALMONELLA TYPHIMURIUM, Strain/Indicator: TA100, Metabolic Activation: NONE, Method: STANDARD PLATE
[3] = Test System: AMES SALMONELLA TYPHIMURIUM, Strain/Indicator: TA1535, Metabolic Activation: NONE, Method: STANDARD PLATE
[4] = Test System: AMES SALMONELLA TYPHIMURIUM, Strain/Indicator: TA1537, Metabolic Activation: NONE, Method: STANDARD PLATE
[5] = Test System: AMES SALMONELLA TYPHIMURIUM, Strain/Indicator: TA98, Metabolic Activation: NONE, Method: PREINCUBATION
[6] = Test System: AMES SALMONELLA TYPHIMURIUM, Strain/Indicator: TA98, Metabolic Activation: HAMSTER, LIVER, S-9, AROCLOR 1254 (10%), Method: PREINCUBATION
[7] = Test System: AMES SALMONELLA TYPHIMURIUM, Strain/Indicator: TA98, Metabolic Activation: RAT, LIVER, S-9, AROCLOR 1254 (10%), Method: PREINCUBATION
[8] = Test System: AMES SALMONELLA TYPHIMURIUM, Strain/Indicator: TA100, Metabolic Activation: HAMSTER, LIVER, S-9, AROCLOR 1254 (10%), Method: PREINCUBATION
[9] = Test System: AMES SALMONELLA TYPHIMURIUM, Strain/Indicator: TA100, Metabolic Activation: NONE, Method: PREINCUBATION
[10] = Test System: AMES SALMONELLA TYPHIMURIUM, Strain/Indicator: TA100, Metabolic Activation: RAT, LIVER, S-9, AROCLOR 1254 (10%), Method: PREINCUBATION
[11] = Test System: AMES SALMONELLA TYPHIMURIUM, Strain/Indicator: TA1535, Metabolic Activation: HAMSTER, LIVER, S-9, AROCLOR 1254 (10%), Method: PREINCUBATION
[12] = Test System: AMES SALMONELLA TYPHIMURIUM, Strain/Indicator: TA1535, Metabolic Activation: NONE, Method: PREINCUBATION
[13] = Test System: AMES SALMONELLA TYPHIMURIUM, Strain/Indicator: TA1535, Metabolic Activation: RAT, LIVER, S-9, AROCLOR 1254 (10%), Method: PREINCUBATION
[14] = Test System: AMES SALMONELLA TYPHIMURIUM, Strain/Indicator: TA1537, Metabolic Activation: HAMSTER, LIVER, S-9, AROCLOR 1254 (10%), Method: PREINCUBATION
[15] = Test System: AMES SALMONELLA TYPHIMURIUM, Strain/Indicator: TA1537, Metabolic Activation: NONE, Method: PREINCUBATION
[16] = Test System: AMES SALMONELLA TYPHIMURIUM, Strain/Indicator: TA1537, Metabolic Activation: RAT, LIVER, S-9, AROCLOR 1254 (10%), Method: PREINCUBATION
[17] = Test System: AMES SALMONELLA TYPHIMURIUM, Strain/Indicator: TA98, Metabolic Activation: S-9, Method: STANDARD PLATE
[18] = Test System: AMES SALMONELLA TYPHIMURIUM, Strain/Indicator: TA100, Metabolic Activation: S-9, Method: STANDARD PLATE

O=[N+]([O-])c1ccc(N=Nc2ccc(N(CCO)CCO)cc2)c([N+](=O)[O-])c1
mutagenic call [1]: active; positive | mutagenic call (Test System: AMES SALMONELLA TYPHIMURIUM, Strain/Indicator: TA98, Metabolic Activation: RAT, LIVER, S-9, AROCLOR 1254, Method: STANDARD PLATE): active; positive | mutagenic call [2]: active; positive | mutagenic call (Test System: AMES SALMONELLA TYPHIMURIUM, Strain/Indicator: TA100, Metabolic Activation: RAT, LIVER, S-9, AROCLOR 1254, Method: STANDARD PLATE): active; positive | mutagenic call [3]: active; positive | mutagenic call (Test System: AMES SALMONELLA TYPHIMURIUM, Strain/Indicator: TA1535, Metabolic Activation: RAT, LIVER, S-9, AROCLOR 1254, Method: STANDARD PLATE): active; positive | mutagenic call [4]: active; positive | mutagenic call (Test System: AMES SALMONELLA TYPHIMURIUM, Strain/Indicator: TA1537, Metabolic Activation: RAT, LIVER, S-9, AROCLOR 1254, Method: STANDARD PLATE): active; positive | mutagenic call (Test System: AMES SALMONELLA TYPHIMURIUM, Strain/Indicator: TA1538, Metabolic Activation: NONE, Method: STANDARD PLATE): active; positive | mutagenic call (Test System: AMES SALMONELLA TYPHIMURIUM, Strain/Indicator: TA1538, Metabolic Activation: RAT, LIVER, S-9, AROCLOR 1254, Method: STANDARD PLATE): active; positive | mutagenic call (Test System: CHINESE HAMSTER V-79, Strain/Indicator: V-79 (HGPRT)/6-THIOGUANINE, Metabolic Activation: RAT, LIVER, S-9, AROCLOR 1254): active; positive | mutagenic call (Test System: CHINESE HAMSTER V-79, Strain/Indicator: V-79/6-THIOGUANINE, Metabolic Activation: NONE): inactive; negative | mutagenic call (Test System: UDS RAT HEPATOCYTES, Strain/Indicator: THY INCORP, Metabolic Activation: NONE, Method: AUTORADIOGRAPHY): inactive; negative

COc1ccc2c(c1)c(CC(=O)OC(C)c1ccccc1)c(C)n2C(=O)c1ccc(Cl)cc1 (configuration not stated)
mutagenic call (End Point: IN VITRO MICRONUCLEUS, Test System: CHL/IU CELLS, Metabolic Activation: NONE): active; positive

Cc1ccc2cc3c(c4c2c1CC4)C1OC1c1ccccc1-3 (configuration not stated)
mutagenic call [1]: active; positive | mutagenic call [2]: active; positive | mutagenic call (Test System: CHINESE HAMSTER V-79, Strain/Indicator: V-79/8-AZAGUANINE, Metabolic Activation: NONE, Method: STANDARD PLATE): active; positive

Cc1cccc2ccc([N+](=O)[O-])cc12
mutagenic call [5]: active; positive

OCC(CO)(CBr)CBr
mutagenic call (End Point: IN VITRO CHROMOSOMAL ABERRATIONS, Test System: CHINESE HAMSTER OVARY CELLS, Metabolic Activation: NONE): inactive; negative | mutagenic call (End Point: IN VITRO CHROMOSOMAL ABERRATIONS, Test System: CHINESE HAMSTER OVARY CELLS, Metabolic Activation: RAT, LIVER, S-9, AROCLOR 1254): active; positive | mutagenic call [6]: inactive; negative | mutagenic call (Test System: AMES SALMONELLA TYPHIMURIUM, Strain/Indicator: TA98, Metabolic Activation: HAMSTER, LIVER, S-9, AROCLOR 1254 (30%), Method: PREINCUBATION): inactive; negative | mutagenic call [5]: inactive; negative | mutagenic call [7]: inactive; negative | mutagenic call (Test System: AMES SALMONELLA TYPHIMURIUM, Strain/Indicator: TA98, Metabolic Activation: RAT, LIVER, S-9, AROCLOR 1254 (30%), Method: PREINCUBATION): inactive; negative | mutagenic call [8]: inactive; negative | mutagenic call (Test System: AMES SALMONELLA TYPHIMURIUM, Strain/Indicator: TA100, Metabolic Activation: HAMSTER, LIVER, S-9, AROCLOR 1254 (30%), Method: PREINCUBATION): active; positive | mutagenic call [9]: inactive; negative | mutagenic call [10]: inactive; negative | mutagenic call (Test System: AMES SALMONELLA TYPHIMURIUM, Strain/Indicator: TA100, Metabolic Activation: RAT, LIVER, S-9, AROCLOR 1254 (30%), Method: PREINCUBATION): inactive; negative | mutagenic call [11]: inactive; negative | mutagenic call [12]: inactive; negative | mutagenic call [13]: inactive; negative | mutagenic call [14]: inactive; negative | mutagenic call [15]: inactive; negative | mutagenic call [16]: inactive; negative

C[C@@H]1O[C@H](C)[C@@H](O)[C@H](O)[C@@H]1OS(=O)(=O)O
mutagenic call [1]: inactive; negative | mutagenic call [17]: inactive; negative | mutagenic call [2]: inactive; negative | mutagenic call [18]: inactive; negative | mutagenic call [3]: inactive; negative | mutagenic call (Test System: AMES SALMONELLA TYPHIMURIUM, Strain/Indicator: TA1535, Metabolic Activation: S-9, Method: STANDARD PLATE): inactive; negative | mutagenic call [4]: inactive; negative | mutagenic call (Test System: AMES SALMONELLA TYPHIMURIUM, Strain/Indicator: TA1537, Metabolic Activation: S-9, Method: STANDARD PLATE): inactive; negative | mutagenic call (Test System: E. COLI, Strain/Indicator: WP2 UVRA, Metabolic Activation: NONE, Method: STANDARD PLATE): inactive; negative | mutagenic call (Test System: E. COLI, Strain/Indicator: WP2 UVRA, Metabolic Activation: S-9, Method: STANDARD PLATE): inactive; negative

Cc1cc(O)c(C(C)(C)C)cc1Sc1cc(C(C)(C)C)c(O)cc1C
mutagenic call [6]: inactive; negative | mutagenic call [5]: inactive; negative | mutagenic call [1]: inactive; negative | mutagenic call [7]: inactive; negative | mutagenic call [17]: inactive; negative | mutagenic call [8]: inactive; negative | mutagenic call [9]: inactive; negative | mutagenic call [2]: inactive; negative | mutagenic call [10]: inactive; negative | mutagenic call [18]: inactive; negative | mutagenic call [11]: inactive; negative | mutagenic call [12]: inactive; negative | mutagenic call [13]: inactive; negative | mutagenic call [14]: inactive; negative | mutagenic call [15]: inactive; negative | mutagenic call [16]: inactive; negative
